Here are results for two compounds from patent US20050054103A1, “Expansion of renewable stem cell populations using modulators of PI 3-kinase” (priority 2003, published 2005).

One data set has as its system mononuclear cells. The data set is described as follows: RAR antagonist treatment of mononuclear cell fraction cultures. The data set is classed as cell-based, human. To be noted: Cytokines + RAR antagonist 10^−6 M; for % CD34/Lin^−: reselected CD34+ fraction. As for the experimental part: Human blood cells were obtained from umbilical cord blood from female patients following full-term, normal delivery (informed consent was obtained). Samples were collected and processed within 12 hours postpartum. Blood was mixed with 3% Gelatin (Sigma, St. Louis, Mo.), sedimented for 30 minutes to remove most red blood cells. The leukocyte-rich fraction was harvested and layered on a Ficoll-Hypaque gradient (1.077 gram/ml; Sigma), and centrifuged at 400 g for 30 minutes. The mononuclear cell fraction in the interface layer was collected, washed three times and resuspended in phosphate-buffered saline (PBS) solution (Biological Industries) containing 0.5% bovine serum albumin (BSA, Fraction V; Sigma).
Alternatively, whole mononuclear fraction cells (MNC) were isolated, cultured and supplemented with cytokines, as above.
CD34^+ purified and whole MNC cultures were prepared and maintained as described above. AGN 194310 RAR antagonist was added to test cultures at concentrations ranging from […] [or 410 μg/l to 4.1×10^−5 μg/l]. The antagonist was added for a predetermined, limited period, for up to three weeks or continuously during the entire culture period.
CD34 surface expression on short and long-term cultures initiated either with purified CD34^+ cells or the entire MNC fraction was determined as follows: CD34^+ cells were positively reselected (Miltenyi kit) and counted. Purity was confirmed by subsequent FACS and cell morphology analysis.
Reselected CD34^+ cell subsets were stained for the following combination of antigens: CD34PE/CD38FITC and CD34PE/38, 33, 14, 15, 3, 4, 61, 19 (Lin) FITC. The fraction positive for CD34 and negative for CD38 was defined as CD34^+CD38^−. The fraction positive for CD34 and negative for LIN was defined as CD34^+Lin^− cell fraction.

The subject of another data set is NOD/SCID mice. In words: Engraftment of SCID mice by ex-vivo expanded human hematopoietic cells. The data set is classed as in vivo. To be noted: for Engraftment CD19 (%) / Engraftment CD34 (%) / Engraftment CD45 (%) / Engraftment Colonies (per 2 × 10^5 SCID BM cells): TEPA + Cytokines. As for the experimental part: Engraftment of SCID mice by ex-vivo expanded human hematopoietic cells: […] After 4 weeks, the mice were sacrificed and their femora and tibias were excised and the bone marrow flushed with a syringe fitted with a 25 gauge needle. A single cell suspension was prepared, the cells were washed and an aliquot counted with Trypan blue. In order to quantitate engrafted cells of human origin, cells were stained with FITC-conjugated anti CD45 antibodies and PE-conjugated either anti CD34, CD19 or CD33 antibodies. Anti CD45 antibodies recognize human, but not mouse, cells, and thus, indicates the human origin of the cells. The proliferation and differentiation potential of the engrafted cells was assayed by cloning bone marrow cells in semi-solid medium under conditions that allow specifically growth of human derived colonies essentially as described in (56).

The subject of data set [1] is Mouse erythroleukemic cells (MEL). In words: HMBA-induced differentiation of erythroleukemic cells. It counts as cell-based. To be noted: day 3. As for the experimental part:
Mouse erythroleukemic cells (MEL): MEL cells are erythroblast like cells. Following treatment with several chemicals (differentiation inducers) the cells undergo erythroid differentiation and accumulate hemoglobin. […] At day 3 of the culture, the total number of cells and the percentage of hemoglobin-containing cells were determined (Table 7).
On day 3, total cell number and hemoglobin containing (benzidine positive) cells were determined.

The test system of another data set is Hepatocytes. In words: Hepatocyte cultures ex-vivo expanded with TEPA. The data set is classed as cell-based, BALB/c mice. To be noted: 15 μg/ml TEPA, five weeks. As for the experimental part: Hepatocytes: Livers were dissected from anesthetized BALB/c mice with sterile tools and immersed into F12 culture medium (Biological Industries, Kibbutz Bet Ha'Emek, Israel). The livers were washed three times with 3% BSA/PBS buffer and minced into small pieces with seizures. Following three washes with 3% BSA/PBS the liver tissue pieces were incubated for 30 minutes with 0.05% collagenase at 37° C. with continuos shaking under 5% CO2 atmosphere. The digested liver tissue pieces were than mashed by pressing through a fine mesh strainer. After three washes with 3% BSA/PBS the liver cells were seeded into F12 culture medium enriched with: 15 mM HEPES buffer, […], 10 mM sodium bicarbonate, 0.5 u/ml insulin, 7.5 ng/ml hydrocortisone and with or without 15 μg/ml of TEPA and incubated at 37° C. in a 5% CO2 atmosphere. After overnight incubation the medium was removed and the cells were supplemented with fresh enriched F12 medium as described above with or without 15 μg/ml of TEPA. Hepatocytes were incubated in 35 mm dishes for several weeks with enriched F12 culture medium with or without 15 μg/ml TEPA at 37° C. under 5% CO2 atmosphere. Cell culture medium was replaced every week with a fresh medium.

Setting [2] is: CB 2 (first listed) 10% FCS, 2 weeks ex-vivo.
Setting [3] is: CB 2 (second listed) 10% FCS, 2 weeks ex-vivo.

Molecules are shown by their SMILES.

`CCc1ccc(C2=CC(C)(C)Sc3ccc(C#Cc4ccc(C(=O)O)cc4)cc32)cc1` [AGN 194310]: in the data set with mononuclear cells (2 weeks), the “No of CD34^+/Lin^− × 10^4 (cumulative value)” value is 132.5 × 10^4, the “No of CD34 cells × 10^4 (cumulative value)” value is given as 169 × 10^4 and the “% CD34/Lin^−” value came out at 78%. Further, in the data set with mononuclear cells (5 weeks), the “No of CD34^+/Lin^− × 10^4 (cumulative value)” value is recorded as 237.8 × 10^4, the “No of CD34 cells × 10^4 (cumulative value)” value was 985 × 10^4 and the “% CD34/Lin^−” value is listed as 24%.

With `NCCNCCNCCNCCN` [TEPA, tetraethylenepentamine], the “Engraftment CD19 (%)” value in the data set on NOD/SCID mice (setting [2]) stood at 11%; in the data set with NOD/SCID mice (setting [3]) it was 9%; with NOD/SCID mice (CB 3 10% FCS, 2 weeks ex-vivo), 5%; in the data set on NOD/SCID mice (CB 4 1% FCS, 2 weeks ex-vivo), 8%; in the data set on NOD/SCID mice (CB 4 1% FCS, 4 weeks ex-vivo), 14%; in the data set on NOD/SCID mice (CB 5- FCS, 4 weeks ex-vivo), 9%. In addition, the “Engraftment CD19 (%)” value with NOD/SCID mice (CB 6 1% FCS, 2 weeks ex-vivo) was found to be 19%; in the data set on NOD/SCID mice (CB 6 10% FCS, 2 weeks ex-vivo), 26%. Besides, the “Engraftment CD34 (%)” value worked out at 13% in the data set on NOD/SCID mice (setting [2]); 13.5% with NOD/SCID mice (setting [3]); 4% in the data set on NOD/SCID mice (CB 3 10% FCS, 2 weeks ex-vivo); 7% with NOD/SCID mice (CB 4 1% FCS, 2 weeks ex-vivo); 9% in the data set on NOD/SCID mice (CB 4 1% FCS, 4 weeks ex-vivo); 6% in the data set on NOD/SCID mice (CB 5- FCS, 4 weeks ex-vivo). In addition, the “Engraftment CD34 (%)” value in the data set with NOD/SCID mice (CB 6 1% FCS, 2 weeks ex-vivo) came out at 16%; in the data set with NOD/SCID mice (CB 6 10% FCS, 2 weeks ex-vivo), 9%. Further, the “Engraftment CD45 (%)” value in the data set with NOD/SCID mice (setting [2]) is 56%; in the data set on NOD/SCID mice (setting [3]), 48%; in the data set on NOD/SCID mice (CB 3 10% FCS, 2 weeks ex-vivo), 20%; with NOD/SCID mice (CB 4 1% FCS, 2 weeks ex-vivo), 28%; with NOD/SCID mice (CB 4 1% FCS, 4 weeks ex-vivo) it was 40%; in the data set with NOD/SCID mice (CB 5- FCS, 4 weeks ex-vivo), 21%. Further, the “Engraftment CD45 (%)” value in the data set with NOD/SCID mice (CB 6 1% FCS, 2 weeks ex-vivo) is recorded as 73%; with NOD/SCID mice (CB 6 10% FCS, 2 weeks ex-vivo) it was 73%. The “Engraftment Colonies (per 2 × 10^5 SCID BM cells)” value in the data set with NOD/SCID mice (setting [2]) amounted to 330; with NOD/SCID mice (setting [3]) it was 528; in the data set on NOD/SCID mice (CB 3 10% FCS, 2 weeks ex-vivo) it was 100; in the data set with NOD/SCID mice (CB 4 1% FCS, 2 weeks ex-vivo), 185; in the data set with NOD/SCID mice (CB 4 1% FCS, 4 weeks ex-vivo), 267; with NOD/SCID mice (CB 5- FCS, 4 weeks ex-vivo), 275. Besides, the “Engraftment Colonies (per 2 × 10^5 SCID BM cells)” value is 350 with NOD/SCID mice (CB 6 1% FCS, 2 weeks ex-vivo) and 420 with NOD/SCID mice (CB 6 10% FCS, 2 weeks ex-vivo). Also, the “cord blood samples (of 6) expanded ex-vivo that succeeded to engraft the animals” value in the data set on NOD/SCID mice (expanded in the presence of TEPA) was determined as 6. Also, the results for the “Benzidine Positive Cells (%)” value in data set [1] (HMBA + chelator 5 μM), in data set [1] (HMBA + chelator 10 μM) and in data set [1] (HMBA + chelator 20 μM) were 24%, 16% and 16%, respectively. In addition, the “Cells/ml (×10^4)” value is given as 35 ×10^4 in data set [1] (HMBA + chelator 5 μM), 35 ×10^4 in data set [1] (HMBA + chelator 10 μM) and 47 ×10^4 in data set [1] (HMBA + chelator 20 μM). The “cell content of hepatocyte cultures” value in the data set with Hepatocytes is “contained many dividing and undifferentiated cells”.
